# Assay results as given in paper PMC10489073 (Molecules, 2023).
# Assays:
# HL-7702 = test: Cell proliferation analysis (MTT), normal cells; assay type: cell-based; conditions: Homo sapiens, L02, non-malignant cell line, 48 h, read-out: Anti-proliferative activity IC50, HL-7702
# Experimental: (§1) All tumor cell lines in the current research were grown in a certain growth medium containing 10% FBS and 1% (v/v/v) penicillin–streptomycin–amphotericin at 37 °C in 5% CO2. Cells were seeded into 96-well plates at a density of 8 × 10^3 cells per well for tumor adherent cells and 2 × 10^4 cells per well for tumor-suspended cells in a final volume of 100 μL. After 12 h, 100 μL of various concentrations of compounds was added to each and incubated for 48 h. A 0.5% MTT solution was added per well before the intermixture was incubated for another 4 h, and formazan formed from MTT was extracted by adding […] of DMSO rocking for 15 min. Absorbance was measured at 570 nm using a Spark multimode microplate from Tecan. The IC50 values were calculated according to the inhibition ratios.
# HEK293 = test: Cell proliferation analysis (MTT), normal cells; assay type: cell-based; conditions: Homo sapiens, non-malignant cell line, 48 h, read-out: Anti-proliferative activity IC50, HEK293
# Experimental: as §1
# [1] = system: P21WAF1/Cip1 in MM1.S cells; test: Western blot analysis, P21; assay type: cell-based; conditions: 24 h
# Experimental: (§2) MM1.S cells were seeded in 6-well plates with a density of 2.5 × 10^6 cells/well. Then, the cells were cultured with 1, 2, and 4 μM BC-05 and 10 nM ixazomib, respectively. After incubation for 24 h, the cells were collected, and total proteins were extracted via RIPA containing a 2% protease inhibitor cocktail. Cell lysates were centrifugated at 4 °C, 12,000 rpm for 15 min, and the supernatants were collected and quantified with BCA assay. After being boiled at 100 °C for 10 min in a NuPAGE lithium dodecyl sulfate (LDS) sample buffer (5X), equivalent samples were separated by 12% sodium dodecyl-sulfate polyacrylamide gel electrophoresis at 120 V, transferred to immune-blot poly(vinylidene fluoride) (PVDF) membranes (Merck Millipore, Burlington, MA, USA) at 4 °C and then blocked by 5% non-fat milk in TBST for an hour. The membranes were incubated overnight at 4 °C with certain primary antibodies, which were deliquates by an antibody dilution buffer (Boster Bio, Pleasanton, CA, USA) and then washed with TBST. After incubating with a horseradish (HRP)-conjugated secondary antibody for 1 h at room temperature, the membranes were washed five times with TBST for 5 min. The images were visualized on the Tanon-5200 Chemiluminescent Imaging System via luminol reaction. […]
# CD13 from Porcine Kidney = biological target: T1, CD13 from Porcine Kidney (Sus scrofa, UniProt P15145); test: CD13 inhibition assay (porcine aminopeptidase, L-leucine-p-nitroanilide); assay type: biochemical; conditions: mean ± SD, n ≥ 3; read-out: IC50 toward CD13 from Porcine Kidney
# T1 construct: purchased Sigma Chemical Co., St. Louis, MO, USA
# T1 sequence (P15145 whole entry): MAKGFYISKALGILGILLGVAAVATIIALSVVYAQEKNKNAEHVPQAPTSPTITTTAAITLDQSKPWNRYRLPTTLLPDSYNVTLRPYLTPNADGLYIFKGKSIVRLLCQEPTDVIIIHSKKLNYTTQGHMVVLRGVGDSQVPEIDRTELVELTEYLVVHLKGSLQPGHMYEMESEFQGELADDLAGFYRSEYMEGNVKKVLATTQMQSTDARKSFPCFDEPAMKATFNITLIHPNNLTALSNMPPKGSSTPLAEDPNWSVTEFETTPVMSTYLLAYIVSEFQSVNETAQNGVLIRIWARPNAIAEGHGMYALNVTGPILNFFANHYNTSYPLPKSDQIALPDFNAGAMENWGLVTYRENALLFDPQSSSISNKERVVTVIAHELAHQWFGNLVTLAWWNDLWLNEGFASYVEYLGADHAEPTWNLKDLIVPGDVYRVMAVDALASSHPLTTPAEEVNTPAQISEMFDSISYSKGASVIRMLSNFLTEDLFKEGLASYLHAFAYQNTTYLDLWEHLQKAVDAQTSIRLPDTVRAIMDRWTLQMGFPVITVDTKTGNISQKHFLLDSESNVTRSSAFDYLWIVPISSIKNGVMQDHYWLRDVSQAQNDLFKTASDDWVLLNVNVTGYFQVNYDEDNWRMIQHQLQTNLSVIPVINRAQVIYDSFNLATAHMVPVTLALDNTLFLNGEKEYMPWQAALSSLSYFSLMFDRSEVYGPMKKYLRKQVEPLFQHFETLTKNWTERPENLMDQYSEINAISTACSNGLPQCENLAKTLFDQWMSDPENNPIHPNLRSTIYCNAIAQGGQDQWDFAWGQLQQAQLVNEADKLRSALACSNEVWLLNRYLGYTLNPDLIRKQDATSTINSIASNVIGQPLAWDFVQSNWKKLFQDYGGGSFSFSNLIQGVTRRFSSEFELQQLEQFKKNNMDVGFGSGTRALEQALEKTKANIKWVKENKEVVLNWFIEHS
# Experimental: (§3) L-leucine-p-nitroanilide can be degraded by recombinant human aminopeptidase (R&D systems) or procine aminopeptidase (Sigma Chemical Co., St. Louis, MO, USA) and produce light absorption at 405 nm. The CD13 inhibitory activity of synthetic compounds was identified according to the degree of degradation of L-leucine-p-nitroanilide. L-leucine-p-nitroanilide was dissolved in DMSO and mixed with tested compounds in a transparent 96-well plate; then, aminopeptidase was added using phosphate solution (pH 7.2) as the assay buffer. After incubation at 37 °C for 30 min, the absorption was detected under a 405 nm wavelength via Tecan Spark multimode microplate.
# [2] = system: macrophage phagocytic activity (MPA) of the reticular endothelial system; test: Macrophage phagocytosis by carbon clearance test; assay type: in vivo, Kunming mice; conditions: twice a week for two weeks; for Carbon Clearance Index (K): Ctrl 0.057 ± 0.0061; for Phagocytosis Index (α): Ctrl 5.36 ± 0.19
# Experimental: The animal experiments were conducted under the guidelines of the “Regulations for the Administration of Affairs Concerning Experimental Animals” (revised 2017, State Council No. 676). Kunming mice were randomly divided into control groups and treatment groups. After oral administration of test compounds twice a week for two weeks, the mice were injected with carbon ink suspension (Indian Ink, Camel) (100 μL/10 g of body weight) via the tail vein. Two and ten minutes after the injection of carbon suspension, the blood samples were collected from a retro-orbital vein. A total of 25 μL of a blood sample was directly added into 2 mL of 0.1% sodium carbonate solution. The absorbance of the sample was measured at 600 nm using a UV-visible spectrophotometer. The K value was calculated by the formula Log (OD2) − Log (OD10)/(T2 − T1), where OD2 and OD10 were the absorbance of blood at 2 and 10 min, respectively; T2 is the last time point of blood collection; T1 is the first time point of blood collection. The α value was calculated by the formula (k^1/3 × body weight)/(liver weight + spleen weight).
# [3] = Acute toxicity experiment (single oral dose); assay type: in vivo; conditions: for Survival Animals: 7 days, n = 10
# Source text: The mouse mortality was monitored daily and recorded up to 7 days after treatment.
# Human CD13 = biological target: T2, Human CD13 (Homo sapiens, UniProt P15144); test: CD13 inhibition assay (recombinant human aminopeptidase, L-leucine-p-nitroanilide); assay type: biochemical; conditions: mean ± SD, n ≥ 3; read-out: IC50 toward Human CD13
# T2 construct: purchased R&D systems
# T2 sequence (P15144 whole entry): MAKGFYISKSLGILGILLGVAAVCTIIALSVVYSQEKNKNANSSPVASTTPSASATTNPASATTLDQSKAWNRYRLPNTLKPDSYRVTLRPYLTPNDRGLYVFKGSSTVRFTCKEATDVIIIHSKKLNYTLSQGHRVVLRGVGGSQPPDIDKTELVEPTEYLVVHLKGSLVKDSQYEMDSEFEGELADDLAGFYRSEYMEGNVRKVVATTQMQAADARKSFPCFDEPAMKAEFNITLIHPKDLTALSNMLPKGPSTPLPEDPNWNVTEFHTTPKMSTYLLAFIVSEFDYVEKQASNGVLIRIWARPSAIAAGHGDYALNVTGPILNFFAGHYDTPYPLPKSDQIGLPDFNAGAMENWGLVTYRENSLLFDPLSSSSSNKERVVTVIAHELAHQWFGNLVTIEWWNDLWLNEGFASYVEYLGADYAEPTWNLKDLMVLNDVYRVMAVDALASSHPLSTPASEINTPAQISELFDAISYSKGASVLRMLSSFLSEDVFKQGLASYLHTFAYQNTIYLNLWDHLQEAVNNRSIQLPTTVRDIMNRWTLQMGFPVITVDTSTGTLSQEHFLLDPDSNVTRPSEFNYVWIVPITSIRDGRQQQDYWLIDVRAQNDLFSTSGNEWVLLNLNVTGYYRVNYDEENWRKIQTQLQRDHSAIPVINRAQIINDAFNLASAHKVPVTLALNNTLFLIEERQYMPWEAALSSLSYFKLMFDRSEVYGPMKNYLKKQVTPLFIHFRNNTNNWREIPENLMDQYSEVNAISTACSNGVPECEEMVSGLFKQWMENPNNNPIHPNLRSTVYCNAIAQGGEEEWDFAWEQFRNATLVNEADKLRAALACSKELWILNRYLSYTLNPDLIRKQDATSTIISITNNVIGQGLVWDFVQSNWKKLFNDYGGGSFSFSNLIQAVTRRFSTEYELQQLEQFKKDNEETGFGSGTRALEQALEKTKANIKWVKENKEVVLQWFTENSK
# Experimental: as §3
# [4] = system: cleaved caspase-3 in MM1.S cells; test: Western blot analysis, caspase-3 cleavage; assay type: cell-based; conditions: MM1.S, 1, 2 and 4 µM, 24 h
# Experimental: as §2
# [5] = Subacute toxicity experiment; assay type: in vivo; conditions: SD rats, male and female, 0.006, 0.02 and 0.06 mmol/kg p.o. twice a week, 30 days
# Experimental: The animal experiments were conducted under the guidelines of the “Regulations for the Administration of Affairs Concerning Experimental Animals” (revised 2017, State Council No. 676). For the subacute toxicity study, 12 male and 12 female SD rats (purchased from the Weifang Medical University) were randomly divided into three treatment groups and a control group (n = 6, half male and half female). The rats in treatment groups were given 0.06 mmol/kg (p.o. BIW), 0.02 mmol/kg (p.o. BIW), and 0.006 mmol/kg (p.o. BIW) BC-05, respectively, for 30 days, while the rats in control groups were treated with the same volume of a vehicle solution. The rats were weighed each day and dissected at day 30. Behavioral abnormalities such as lethargy, ruffled fur, anorexia, clonic convulsion, and diarrhea were recorded throughout the entire experimental period.
smiles,measurement,setting,value
"CC(C)C[C@H](NC(=O)[C@@H](O)[C@H](N)Cc1ccccc1)B1OC(=O)C(CC(=O)O)(CC(=O)O)O1 [BC-05, 2,2′-(2-((R)-1-((2S,3R)-3-amino-2-hydroxy-4-phenylbutanamido)-3-methylbutyl)-5-oxo-1,3,2-dioxaborolane-4,4-diyl)diacetic acid]",IC50,HL-7702,> 200 µM
same,IC50,HEK293,> 200 µM
same,P21WAF1/Cip1 level (Western blot),[1],significantly upregulates
same,IC50,CD13 from Porcine Kidney,650 ± 50 nM
same,Carbon Clearance Index (K),[2]; 0.006 mmol/kg oral,0.066 ± 0.0077
same,Phagocytosis Index (α),[2]; 0.006 mmol/kg oral,6.60 ± 0.26
same,Carbon Clearance Index (K),[2]; 0.008 mmol/kg oral,0.076 ± 0.0016
same,Phagocytosis Index (α),[2]; 0.008 mmol/kg oral,6.61 ± 0.05
same,LD50 at 7 days,"[3]; both sexes, Kunming, mouse, in vivo, single oral dose, healthy mice",400 µmol/kg
same,Survival Animals,[3]; single oral 0.27 mmol/kg,10/10
same,Survival Animals,[3]; single oral 0.36 mmol/kg,6/10
same,Survival Animals,[3]; single oral 0.49 mmol/kg,4/10
same,Survival Animals,[3]; single oral 0.65 mmol/kg,1/10
same,Survival Animals,[3]; single oral 0.86 mmol/kg,0/10
same,IC50,Human CD13,130 ± 10 nM
same,Caspase-3 cleavage (Western blot),[4],obvious
same,body weight loss,[5],did not exhibit any significant body weight loss
